Measured values published in PubChem BioAssay AID2060621 (Molecular Pharmacology Branch, DTP, NCI, 2025).
Several values for one entry are separate records, joined by “and”; a condition that tells them apart may be missing. Equal entries are not always repeated.

Tested on: 324938-238-R-J1-PDC complex spheroids viability
Test: Anticancer human tumor 324938-238-R-J1-PDC patient-derived bladder carcinoma cell line growth inhibition [CLK]
Settings: for viability, T/C: stronger effect = lower value; active means viability on the fitted dose curve at most 10% of control; inactive means the rest
Outline: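 Multi-cell-type spheroids combined patient-derived tumor cells with HUVEC endothelial cells and human mesenchymal stem cells. Paired agents were dosed in half-log steps down from about clinical Cmax, or from 10 microM where Cmax was unknown.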
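Further: viability read after seven days of drug exposure.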
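Wherever viability, T/C is given: 100% = DMSO vehicle control wells.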

CC(C)CC(NC(=O)C(Cc1ccccc1)NC(=O)c1cnccn1)B(O)O (stereo unspecified) + CN1CCN(c2cc(C(=O)Nc3cc4cc(-c5cnn(C)c5)ccc4cn3)ccn2)CC1
< 0.949 nM: IC50 (curve of first compound, second compound 0.1 µM) | IC50 (curve of first compound, second compound 0.316 µM) | IC50 (curve of first compound, second compound 1 µM) | IC50 (curve of first compound, second compound 3.16 µM) | IC50 (curve of first compound, second compound 10 µM)
active: viability, T/C (second compound 0.0316 µM, first compound 0.003 µM) 2.89% | viability, T/C (second compound 0.0316 µM, first compound 0.00949 µM) 0.33% | viability, T/C (second compound 0.0316 µM, first compound 0.03 µM) 0.33% | viability, T/C (second compound 0.0316 µM, first compound 0.0949 µM) 0.22% | viability, T/C (second compound 0.0316 µM, first compound 0.3 µM) 0.18% | viability, T/C (second compound 0.1 µM, first compound 0.003 µM) 2.21% | viability, T/C (second compound 0.1 µM, first compound 0.00949 µM) 0.38% | viability, T/C (second compound 0.1 µM, first compound 0.03 µM) 0.33% | viability, T/C (second compound 0.1 µM, first compound 0.0949 µM) 0.18% | viability, T/C (second compound 0.1 µM, first compound 0.3 µM) 0.32% | viability, T/C (second compound 0.316 µM, first compound 0.003 µM) 0.71% | viability, T/C (second compound 0.316 µM, first compound 0.00949 µM) 0.31% | viability, T/C (second compound 0.316 µM, first compound 0.03 µM) 0.2% | viability, T/C (second compound 0.316 µM, first compound 0.0949 µM) 0.15% | viability, T/C (second compound 0.316 µM, first compound 0.3 µM) 0.17% | viability, T/C (second compound 1 µM, first compound 0.000949 µM) 0.28% | viability, T/C (second compound 1 µM, first compound 0.003 µM) 0.27% | viability, T/C (second compound 1 µM, first compound 0.00949 µM) 0.18% | viability, T/C (second compound 1 µM, first compound 0.03 µM) 0.16% | viability, T/C (second compound 1 µM, first compound 0.0949 µM) 0.44% | viability, T/C (second compound 1 µM, first compound 0.3 µM) 0.22% | viability, T/C (second compound 3.16 µM, first compound 0.000949 µM) 0.23% | viability, T/C (second compound 3.16 µM, first compound 0.003 µM) 0.24% | viability, T/C (second compound 3.16 µM, first compound 0.00949 µM) 0.24% | viability, T/C (second compound 3.16 µM, first compound 0.03 µM) 0.1% | viability, T/C (second compound 3.16 µM, first compound 0.0949 µM) 0.18% | viability, T/C (second compound 3.16 µM, first compound 0.3 µM) 0.17% | viability, T/C (second compound 10 µM, first compound 0.000949 µM) 0.71% | viability, T/C (second compound 10 µM, first compound 0.003 µM) 0.21% | viability, T/C (second compound 10 µM, first compound 0.00949 µM) 0.18% | viability, T/C (second compound 10 µM, first compound 0.03 µM) 0.22% | viability, T/C (second compound 10 µM, first compound 0.0949 µM) 0.26% | viability, T/C (second compound 10 µM, first compound 0.3 µM) 0.25%
1.29 nM: IC50 (curve of first compound, second compound 0.0316 µM)
inactive: viability, T/C (second compound 0.0316 µM, first compound 0.000949 µM) 67% | viability, T/C (second compound 0.1 µM, first compound 0.000949 µM) 46.9% | viability, T/C (second compound 0.316 µM, first compound 0.000949 µM) 11.1%

C#Cc1c(F)ccc2cc(O)cc(-c3ncc4c(N5CC6CCC(C5)N6)nc(OCC56CCCN5CC(F)C6)nc4c3F)c12 (stereo unspecified)
inactive: viability, T/C (compound 0.0316 µM) 80% and 86.4% | viability, T/C (compound 0.1 µM) 69.2% and 79.7% | viability, T/C (compound 0.316 µM) 56.7% and 70% | viability, T/C (compound 1 µM) 64.9% and 53.9% | viability, T/C (compound 3.16 µM) 48.4% and 41.9% | viability, T/C (compound 10 µM) 41.9% and 38%
2920 nM and 1470 nM: IC50 (curve of compound)

CCc1c2c(nc3ccc(O)cc13)-c1cc3c(c(=O)n1C2)COC(=O)[C@]3(O)CC
10.8% and 13.9%: viability, T/C (compound 0.1 µM)
active: viability, T/C (compound 0.316 µM) 7.67% and 11.4% | viability, T/C (compound 1 µM) 2.3% and 1.78%
inactive: viability, T/C (compound 0.00316 µM) 14.5% and 16.4% | viability, T/C (compound 0.01 µM) 10.3% and 12.2% | viability, T/C (compound 0.0316 µM) 10.7% and 11.6%
< 3.16 nM: IC50 (curve of compound)
